“And” between values parts separate entries of the source, which are not always exact repeats. Identical values can stand only once.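 Values below derive from 48-hour exposures of cells grown in 96-well plates, with endpoints linearly interpolated between the two concentrations bracketing the appropriate inhibition level. Here, GI50 denotes the concentration required for 50% inhibition of growth. TGI: concentration producing complete growth inhibition.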
What was measured:
Assay in all cases: inhibition of tumour cell growth, NCI panel, 48 h
UO-31 renal = tested on: UO-31 renal
LOX IMVI melanoma = tested on: LOX IMVI melanoma
MALME-3M melanoma = tested on: MALME-3M melanoma
SW-620 colon = tested on: SW-620 colon
K-562 leukemia = tested on: K-562 leukemia
HCT-116 colon = tested on: HCT-116 colon
HCT-15 colon = tested on: HCT-15 colon
MDA-MB-231 breast = tested on: MDA-MB-231 breast
M14 melanoma = tested on: M14 melanoma
U251 CNS = tested on: U251 CNS

SMILES | TGI (UO-31 renal) | TGI (LOX IMVI melanoma) | TGI (MALME-3M melanoma) | TGI (SW-620 colon) [µM] | TGI (K-562 leukemia) [µM] | TGI (HCT-116 colon) | TGI (HCT-15 colon) | TGI (MDA-MB-231 breast) [µM] | TGI (M14 melanoma) | TGI (U251 CNS) | GI50 (LOX IMVI melanoma) [µM] | GI50 (MALME-3M melanoma) [µM] | GI50 (HCT-116 colon) [µM] | GI50 (HCT-15 colon) [µM] | GI50 (M14 melanoma) [µM] | GI50 (U251 CNS) [µM] | GI50 (K-562 leukemia) [µM]
S=c1[nH]c2ccc(I)cc2c(=S)n1Cc1ccccc1 | 24.8 µM | 16 µM | 33.6 µM | 14.7 | 14.6 | 13.2 µM | 23.3 µM | 20.4 | 31.6 µM | 12.9 µM | – | – | – | – | – | – | –
C=C1C(=O)OC2CC3(C)OC3CC/C(C)=C/C(OC(C)=O)C12 (stereo not drawn) | 26.5 µM | 12.8 µM | 5.9 µM | 4.89 | 15.4 | 14.6 µM | 19.3 µM | 24.8 | 9.86 µM | 33.5 µM | – | – | – | – | – | – | –
Cc1cc(S(=O)(=O)/N=C(/NN)NNc2cccc(C(F)(F)F)n2)c(S)cc1Cl | 37.2 µM | 39.7 µM | 42.1 µM | 39.3 | 82.6 | 50.6 µM | 38.2 µM | > 100 | 39.9 µM | 33.6 µM | – | – | – | – | – | – | –
C[N+](C)(CCNC(=O)c1cccc2cc3ccccc3nc12)Cc1ccc([N+](=O)[O-])s1 | > 25 µM | > 25 µM | > 25 µM | > 25 | > 25 | > 25 µM | > 25 µM | > 25 | > 25 µM | > 25 µM | – | – | – | – | – | – | –
O=C1CC2CCC(C1)S2=O (stereo not drawn) | > 100 µM | > 100 µM | > 100 µM | > 100 | > 100 | > 100 µM | > 100 µM | > 100 | > 100 µM | > 100 µM | – | – | – | – | – | – | –
CC(C)(C)[Si](C)(C)OCC1OC(n2cnc3c(=O)[nH]c(N)nc32)C(O[Si](C)(C)C(C)(C)C)C1O[Si](C)(C)C(C)(C)C (stereo not drawn) | 15.3 µM | > 19.7 µM | 4.02 µM | > 20.4 | 2.76 | 2.61 µM | > 100 µM | 10.5 | 2.89 µM | 3.71 µM | – | – | – | – | – | – | –
O=C(O)CCC(NC(=O)c1ccc(Nc2nc3cc(C(F)(F)F)ccc3nc2C(=O)O)cc1)C(=O)O (stereo not drawn) | > 100 µM | > 100 µM | > 100 µM | > 100 | > 100 | > 100 µM | > 100 µM | > 100 | > 100 µM | > 100 µM | – | – | – | – | – | – | –
CCN1CCC(O)(/C=C/c2ccc(C(C)C)cc2)C(C(=O)/C=C/c2ccc(C(C)C)cc2)C1 (stereo not drawn) | 7.88 µM | 3.38 µM | 10.5 µM | 7.25 | > 29 | 3.53 µM | 4.63 µM | 3.82 | > 40.5 µM | 7.32 µM | – | – | – | – | – | – | –
COc1cc(CS(=O)c2ccc(O)cc2)cc(OC)c1OC (stereo not drawn) | > 100 µM | > 100 µM | > 100 µM | > 100 | > 100 | > 100 µM | > 100 µM | > 100 | > 100 µM | > 100 µM | – | – | – | – | – | – | –
C=C(c1ccccc1)c1ccccc1-c1cc(-c2ccccc2)cc(-c2ccccc2)n1 | > 100 µM | > 100 µM | > 100 µM | > 100 | > 100 | > 100 µM | > 100 µM | > 100 | > 100 µM | > 100 µM | – | – | – | – | – | – | –
C=C(C(=O)O[C@H]1C(=O)C2=C(C)CCC3C(=C)C(=O)O[C@@H]3C2[C@]1(C)O)C1CC[C@]2(C)CCCC(=C)[C@H]2C1 (stereo partly drawn) | 12 µM and 16.5 µM | 11.5 µM and 15.7 µM | 16.3 µM and 31.1 µM | 21.2 | > 20.1 | 9.96 µM and 8.4 µM | 8.77 µM and 12.8 µM | 13.8 | 12.3 µM and 20.3 µM | 7.04 µM and 9.95 µM | 5.26 | 15.5 | 2.09 | 1.92 | 5.74 | 0.117 | –
CC1(C)CCc2c(c(N=Nc3ccc(F)cc3)c3ccccc3c2O)O1 | > 100 µM | 47.3 µM | 68.5 µM | > 100 | > 100 | > 100 µM | > 100 µM | > 100 | 39.9 µM | > 100 µM | – | – | – | – | – | – | –
COc1ccc(N2NC(c3ccccc3)(c3ccccc3)C(C)C2=O)cc1 (stereo not drawn) | > 100 µM | > 100 µM | > 100 µM | > 100 | > 100 | > 100 µM | > 100 µM | > 100 | > 100 µM | > 100 µM | – | – | – | – | – | – | –
Brc1ccc2c(-c3csc(-c4c[nH]c5ccccc45)n3)c[nH]c2c1 | 27.6 µM | 29.6 µM | 31 µM | 30.1 | 37.5 | 29.6 µM | 28.5 µM | 31 | 27.3 µM | 31.7 µM | – | – | – | 15.2 | – | – | 18.8
Cc1sc2nc3n(c(=O)c2c1C)N=CN(c1ccc(F)cc1)C3 | > 100 µM | > 100 µM | 57.2 µM | > 100 | > 100 | 49 µM | > 100 µM | > 100 | > 100 µM | > 100 µM | – | – | – | – | – | – | –
c1ccc(CN2CCN3CCN(CC2)CCN(Cc2ccccc2)CC3)cc1 | > 81.5 µM | 25.7 µM | 8.01 µM | 63.3 | 25.6 | 16.4 µM | > 88.8 µM | 18.4 | 19.6 µM | 15.8 µM | – | – | – | – | – | – | –
COc1cc(Br)c(CC2C3=C(CCN2C(=O)C2CCC2)CC(=O)CC3)cc1O (stereo not drawn) | > 100 µM | > 100 µM | 92.7 µM | > 100 | 81.3 | > 100 µM | 47.5 µM | > 100 | > 100 µM | > 100 µM | – | – | – | – | – | – | –
O=[N+]([O-])C(Cl)=C/C(=C(\Cl)SCc1ccccc1)[N+](=O)[O-] | 40.2 µM | 33.6 µM | 57.8 µM | 59.3 | 30.5 | 44.1 µM | 35.5 µM | 59.3 | 53.8 µM | 34.9 µM | – | – | – | – | – | – | –
O=c1[nH]c(=S)c2cc3c(=S)[nH]c(=O)n(CCO)c3nc2n1CCO | > 100 µM | > 100 µM | > 100 µM | > 100 | > 100 | > 100 µM | > 100 µM | > 100 | > 100 µM | > 100 µM | – | – | – | – | – | – | –
COC(=O)c1c(O)ccc2c1c1c(n2Cc2ccccc2)C(=O)c2ccccc2C1 | > 100 µM | 69.5 µM | > 100 µM | > 100 | 46 | > 100 µM | > 100 µM | > 100 | > 100 µM | > 100 µM | – | – | – | – | – | – | –
O=c1c2ccccc2nc(N/N=C/c2ccccc2O)n1-c1ccccc1 | > 100 µM | > 100 µM | > 100 µM | > 100 | > 100 | 8.8 µM | > 100 µM | > 100 | > 100 µM | > 100 µM | – | – | – | – | – | – | –
[N-]=[N+]=C(C(=O)N1CCCC1=O)S(=O)(=O)c1ccccc1 | > 100 µM | > 100 µM | > 100 µM | > 100 | > 100 | > 100 µM | > 100 µM | > 100 | > 100 µM | > 100 µM | – | – | – | – | – | – | –
N#CC(C#N)=C1C(=O)NC(N)=C1C#N | > 100 µM | > 100 µM | > 100 µM | > 100 | > 100 | > 100 µM | > 100 µM | > 100 | > 100 µM | > 100 µM | – | – | – | – | – | – | –
C/C=C(/C)C(=O)O[C@H]1[C@H](O)CC(c2ccc3c(c2O)C(O)=C2C(=O)C4(OC)C(O)=C(C(N)=O)C(=O)[C@H](CC(=O)c5ccccc5O)C4CC2[C@@]3(C)OC)O[C@@H]1C (stereo partly drawn) | 2.34 µM | 0.132 µM | 2.87 µM | 1.13 | 10.7 | 0.0262 µM and 0.0189 µM | 18.1 µM | 1.35 | 2.13 µM and 1.34 µM | 0.148 µM and 0.117 µM | – | – | – | – | – | – | –
CCCCCCCCCCCCCC(=O)N(CCCCCCCCC)CC(O)C(O)C(OC1OC(CO)C(O)C(O)C1O)C(O)CO (stereo not drawn) | 34.5 µM | 39.6 µM | 35.7 µM | 36.5 | 39.4 | 32.1 µM | 49.7 µM | 37.2 | 40.8 µM | 38.6 µM | – | – | – | – | – | – | –
COc1ccc(C(=O)/C=C/c2cc(O)c(O)cc2F)c(OC)c1 | 30.8 µM | 26.9 µM | 24.6 µM | > 55.3 | > 43.1 | 20.4 µM | > 40.9 µM | 64.3 | 23.9 µM | 20.9 µM | – | – | – | – | – | – | –
Cc1ccc(NC(=O)CSC(N)=O)cc1C | > 100 µM | > 100 µM | > 100 µM | > 100 | > 100 | > 100 µM | > 100 µM | > 100 | > 100 µM | > 100 µM | – | – | – | – | – | – | –
CC(=O)c1c2n(n(-c3ccccc3)c1=O)C(=O)c1nccnc1-2 | > 100 µM | > 100 µM | > 100 µM | > 100 | > 100 | > 100 µM | > 100 µM | > 100 | > 100 µM | > 100 µM | – | – | – | – | – | – | –
